The source made the active and inactive calls. The calls are words filed in the database; no cut-off is given here.
How the values were obtained:
IGROV-1 [1] = test: Antiproliferative activity against human IGROV1 cells assessed as growth inhibition after 72 hrs by Coulter counting analysis; assay type: functional, cell-based; conditions: IGROV-1, 72 h
[2] = biological target: Histone deacetylase 1 (Homo sapiens) (UniProt Q13547); test: Inhibition of human HDAC1 in human IGROV1 cells assessed as histone H4 acetylation at 0.1 uM after 4 hrs by Western blot analysis; assay type: cell-based; conditions: IGROV-1
[3] = biological target: T1, Protein deacetylase HDAC6 (Homo sapiens) (UniProt Q9UBN7); test: Inhibition of human HDAC6 in human IGROV1 cells assessed as alpha-tubulin acetylation at 0.1 uM after 48 hrs by Western blot analysis; assay type: cell-based; conditions: IGROV-1
T1 sequence (whole entry): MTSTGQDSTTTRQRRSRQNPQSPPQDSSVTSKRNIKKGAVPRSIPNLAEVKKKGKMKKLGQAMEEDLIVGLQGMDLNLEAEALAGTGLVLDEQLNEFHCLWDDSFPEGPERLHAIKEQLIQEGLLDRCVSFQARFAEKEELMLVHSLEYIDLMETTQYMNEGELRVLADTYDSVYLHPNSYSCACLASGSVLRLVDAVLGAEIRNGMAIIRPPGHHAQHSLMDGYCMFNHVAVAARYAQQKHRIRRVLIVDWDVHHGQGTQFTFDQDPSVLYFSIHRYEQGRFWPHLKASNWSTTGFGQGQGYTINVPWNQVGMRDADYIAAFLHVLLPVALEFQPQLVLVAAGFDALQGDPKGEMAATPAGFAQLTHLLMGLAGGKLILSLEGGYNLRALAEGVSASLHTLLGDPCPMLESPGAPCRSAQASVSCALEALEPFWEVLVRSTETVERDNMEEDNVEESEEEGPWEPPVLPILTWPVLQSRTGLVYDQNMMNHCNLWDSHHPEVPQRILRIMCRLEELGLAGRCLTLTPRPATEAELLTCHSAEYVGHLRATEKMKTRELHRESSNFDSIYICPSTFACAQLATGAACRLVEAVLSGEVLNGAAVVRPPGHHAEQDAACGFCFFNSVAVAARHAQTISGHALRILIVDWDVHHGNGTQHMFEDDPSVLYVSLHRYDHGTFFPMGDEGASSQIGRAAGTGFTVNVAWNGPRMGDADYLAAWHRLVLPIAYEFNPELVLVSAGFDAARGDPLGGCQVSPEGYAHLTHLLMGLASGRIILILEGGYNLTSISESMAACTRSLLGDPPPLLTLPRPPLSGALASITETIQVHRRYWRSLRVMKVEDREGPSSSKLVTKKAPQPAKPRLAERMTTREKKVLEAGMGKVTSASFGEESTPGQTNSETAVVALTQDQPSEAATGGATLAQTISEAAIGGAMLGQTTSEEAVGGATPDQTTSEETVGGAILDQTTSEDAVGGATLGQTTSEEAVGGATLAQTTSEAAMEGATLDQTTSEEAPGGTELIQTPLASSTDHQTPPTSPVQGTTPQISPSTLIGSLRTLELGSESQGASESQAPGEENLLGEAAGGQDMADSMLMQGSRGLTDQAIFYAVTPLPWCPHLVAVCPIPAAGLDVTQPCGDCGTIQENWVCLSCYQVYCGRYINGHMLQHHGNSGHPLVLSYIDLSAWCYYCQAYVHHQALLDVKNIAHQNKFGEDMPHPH

[4] = biological target: Histone deacetylase 1 (Homo sapiens) (UniProt Q13547); test: Inhibition of human HDAC1 in human IGROV1 cells assessed as histone H4 acetylation after 4 hrs by Western blot analysis; assay type: cell-based; conditions: IGROV-1
[5] = biological target: T1, Protein deacetylase HDAC6 (Homo sapiens); test: Inhibition of human HDAC6 in human IGROV1 cells assessed as alpha-tubulin acetylation after 4 hrs by Western blot analysis; assay type: cell-based; conditions: IGROV-1
[6] = biological target: T1, Protein deacetylase HDAC6 (Homo sapiens); test: Inhibition of human HDAC6 in human IGROV1 cells assessed as alpha-tubulin acetylation at 0.33 to 0.1 uM after 48 hrs by Western blot analysis; assay type: cell-based; conditions: IGROV-1
IGROV-1 [7] = test: Induction of apoptosis in human IGROV1 cells at IC80 concentration by TUNEL assay; assay type: functional

Histone deacetylase 1 (Homo sapiens), sequence (Q13547 whole entry): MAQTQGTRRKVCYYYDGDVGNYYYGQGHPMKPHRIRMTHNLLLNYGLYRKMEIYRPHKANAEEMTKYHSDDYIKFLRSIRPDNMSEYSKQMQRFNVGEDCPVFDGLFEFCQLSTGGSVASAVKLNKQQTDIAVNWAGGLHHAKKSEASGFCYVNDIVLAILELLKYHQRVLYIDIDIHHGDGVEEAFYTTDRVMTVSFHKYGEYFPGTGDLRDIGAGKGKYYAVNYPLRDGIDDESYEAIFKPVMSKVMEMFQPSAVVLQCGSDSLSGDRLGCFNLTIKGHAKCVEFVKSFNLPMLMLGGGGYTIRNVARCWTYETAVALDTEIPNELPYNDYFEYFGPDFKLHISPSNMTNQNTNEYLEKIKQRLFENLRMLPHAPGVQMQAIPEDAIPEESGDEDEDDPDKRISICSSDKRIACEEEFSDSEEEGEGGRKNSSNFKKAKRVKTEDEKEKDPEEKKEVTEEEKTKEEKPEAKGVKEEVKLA

| SMILES | IC50 (IGROV-1 [1]) [nM] | further results |
| --- | --- | --- |
| COc1cc2c(c(OC)c1OC)-c1ccc(SC)c(=O)cc1[C@@H](NC(=O)CCCSSCCCC(=O)N[C@H]1CCc3cc(OC)c(OC)c(OC)c3-c3ccc(SC)c(=O)cc31)CC2 | 50 | inhibition [2]: Active; inhibition [3]: Active |
| O=C(/C=C/c1ccc(CN(CCO)Cc2ccccc2)cc1)NO | 18 | inhibition [4]: Dose-dependent effect; inhibition [5]: Dose-dependent effect |
| O=C(/C=C/c1ccc(CNCc2ccccc2)cc1)NO | 480 | inhibition [4]: Dose-dependent effect; inhibition [5]: Dose-dependent effect |
| COc1cc2c(c(OC)c1OC)-c1ccc(SC)c(=O)cc1[C@@H](NC(=O)CCCSSCCCC(=O)OCCN(Cc1ccccc1)Cc1ccc(/C=C/C(=O)NO)cc1)CC2 | 78 | inhibition [6]: Active; Activity (IGROV-1 [7]): 45% |
| CC(C)(C)OC(=O)N(Cc1ccccc1)Cc1ccc(/C=C/C(=O)NO)cc1 | 19100 | – |
| CC(=O)O[C@H]1C(=O)[C@@]2(C)[C@H]([C@H](OC(=O)c3ccccc3)[C@]3(O)C[C@H](OC(=O)[C@H](O)[C@@H](NC(=O)c4ccccc4)c4ccccc4)C(C)=C1C3(C)C)[C@]1(OC(C)=O)CO[C@@H]1C[C@@H]2O [PACLITAXEL] | 60 | – |
| COc1cc2c(c(OC)c1OC)-c1ccc(SC)c(=O)cc1[C@@H](NC(=O)CCCSSCCCC(=O)O)CC2 | 19 | – |
| C/C=C(\C)C(=O)N[C@@H](c1ccccc1)[C@@H](O)C(=O)O[C@H]1C[C@@]2(O)[C@@H](OC(=O)c3ccccc3)[C@@H]3[C@]4(OC(C)=O)CO[C@@H]4C[C@H](O)[C@@]3(C)C(=O)[C@H](OC(C)=O)C(=C1C)C2(C)C [CEPHALOMANNINE] | 300 | – |
| CC(C)(C)OC(=O)N(Cc1ccccc1)Cc1ccc(/C=C/C(=O)NOC2CCCCO2)cc1 (configuration not stated) | 41000 | – |

— ChEMBL document CHEMBL1156116, “Histone deacetylase and microtubules as targets for the synthesis of releasable conjugate compounds” (Bioorg Med Chem Lett, 2009)
